{"source": "paper PMC5303695", "about": "(Science (New York, N.Y.), 2016)", "biological_target": "PodA30–162 (Mycolicibacterium fortuitum, UniProt K0V2D8)", "assay": "X-ray crystal structure, […] Å", "type": "binding", "conditions": "co-crystal; solvent-exposed active site, stacking with F70", "data": [{"molecule": "Oc1cccc2nc3ccccc3nc12", "note": "[1-hydroxyphenazine]", "values": [{"measurement": "X-ray crystal structure, 1.8 Å", "value": "Crystal formation occurred only in the presence of 1-OH-PHZ, which was visible in a putative"}]}]}
